pIC50: −log10 of the molar value. Some results are limits rather than exact numbers.

For one assay, the target named is T1, Amine oxidase [flavin-containing] A (Homo sapiens, UniProt P21397).
T1 sequence (P21397 whole entry): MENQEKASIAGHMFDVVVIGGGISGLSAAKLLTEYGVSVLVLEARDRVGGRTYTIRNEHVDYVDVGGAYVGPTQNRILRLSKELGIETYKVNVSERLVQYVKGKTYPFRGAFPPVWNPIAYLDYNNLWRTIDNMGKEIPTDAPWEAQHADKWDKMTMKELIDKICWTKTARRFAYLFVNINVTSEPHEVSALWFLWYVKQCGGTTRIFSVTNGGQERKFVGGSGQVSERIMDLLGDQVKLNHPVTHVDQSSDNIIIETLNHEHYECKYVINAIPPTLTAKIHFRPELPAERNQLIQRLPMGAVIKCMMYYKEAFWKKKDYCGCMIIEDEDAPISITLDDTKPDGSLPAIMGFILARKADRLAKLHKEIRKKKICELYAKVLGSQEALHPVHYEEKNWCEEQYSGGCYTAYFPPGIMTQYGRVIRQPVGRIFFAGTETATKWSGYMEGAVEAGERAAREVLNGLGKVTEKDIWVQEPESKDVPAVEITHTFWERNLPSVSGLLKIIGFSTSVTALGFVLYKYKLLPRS
Assay: not given
Conditions: not given; call rule not given here
Broadly, the pIC50 is the negative decadic logarithm of the IC50, by convention in mol/L. Higher therefore signals a small IC50. `FC(F)(F)Cc1cc2c(N[C@H]3CC[C@@H](N[C@H]4C[C@@H]4c4ccccc4)CC3)ncnc2s1`: the pIC50 is less than 4.00.

In turn, `Fc1ccc([C@@H]2C[C@H]2NCC2CCN(c3ncnc4sc(CC(F)(F)F)cc34)CC2)cc1F` had a pIC50 of 4.68.

In turn, `Fc1ccc([C@@H]2C[C@H]2N[C@H]2CC[C@@H](Nc3ncnc4sc(CC(F)(F)F)cc34)CC2)cc1F` showed a negative logarithm of the IC50 (pIC50) of 4.39.

Take `FC(F)(F)Cc1cc2c(N[C@H]3CC[C@H](N[C@H]4C[C@@H]4c4ccccc4)CC3)ncnc2s1`: the pIC50 was 4.89.

Take `FC(F)(F)Cc1cc2c(N3CCC(CN[C@@H]4C[C@H]4c4ccccc4)CC3)ncnc2s1`: the pIC50 was 5.65.

With `FC(F)(F)Cc1cc2c(N[C@H]3CC[C@H](CN[C@H]4C[C@@H]4c4ccccc4)CC3)ncnc2s1`, the pIC50 is 5.07.

As for `FC(F)(F)Cc1cc2c(N[C@H]3CC[C@H](CN[C@@H]4C[C@H]4c4ccccc4)CC3)ncnc2s1`, the pIC50 is 5.39.

Molecule `O=C(O)c1ccc(CN2CCC(CN[C@@H]3C[C@H]3c3ccccc3)CC2)cc1` [GSK2879552] showed a negative logarithm of the IC50 (pIC50) of less than 4.00.

The molecule `Fc1ccc([C@@H]2C[C@H]2NC[C@H]2CC[C@H](Nc3ncnc4sc(CC(F)(F)F)cc34)CC2)cc1F` showed a pIC50 of 4.68.

The next assay deals with MV4-11. As to the kind of experiment: cells. The following applies: Homo sapiens, MV4-11, 168 h.
Description: Antiproliferative activity against human MV4-11 cells after 168 hrs by MTS assay
`FC(F)(F)Cc1cc2c(N[C@H]3CC[C@@H](N[C@H]4C[C@@H]4c4ccccc4)CC3)ncnc2s1` gave a negative-log IC50 (pIC50) of 5.47.

Consider `Fc1ccc([C@@H]2C[C@H]2NCC2CCN(c3ncnc4sc(CC(F)(F)F)cc34)CC2)cc1F`, for which the pIC50 was less than 4.00.

As to `Fc1ccc([C@@H]2C[C@H]2N[C@H]2CC[C@@H](Nc3ncnc4sc(CC(F)(F)F)cc34)CC2)cc1F`, the pIC50 was 6.29.

`FC(F)(F)Cc1cc2c(N[C@H]3CC[C@H](N[C@H]4C[C@@H]4c4ccccc4)CC3)ncnc2s1` gave a pIC50 of 5.44.

In turn, `FC(F)(F)Cc1cc2c(N3CCC(CN[C@@H]4C[C@H]4c4ccccc4)CC3)ncnc2s1` had a pIC50 of 4.94.

`FC(F)(F)Cc1cc2c(N[C@H]3CC[C@H](CN[C@H]4C[C@@H]4c4ccccc4)CC3)ncnc2s1` showed a pIC50 of 5.26.

Molecule `FC(F)(F)Cc1cc2c(N[C@H]3CC[C@H](CN[C@@H]4C[C@H]4c4ccccc4)CC3)ncnc2s1` showed a pIC50 of 5.53.

The molecule `Fc1ccc([C@@H]2C[C@H]2NC[C@H]2CC[C@H](Nc3ncnc4sc(CC(F)(F)F)cc34)CC2)cc1F` had a pIC50 of 5.16.

The target in a further assay is Menin/Histone-lysine N-methyltransferase MLL (Homo sapiens, UniProt O00255+Q03164).
Menin/Histone-lysine N-methyltransferase MLL (Homo sapiens, UniProt O00255+Q03164), sequence (O00255 whole entry): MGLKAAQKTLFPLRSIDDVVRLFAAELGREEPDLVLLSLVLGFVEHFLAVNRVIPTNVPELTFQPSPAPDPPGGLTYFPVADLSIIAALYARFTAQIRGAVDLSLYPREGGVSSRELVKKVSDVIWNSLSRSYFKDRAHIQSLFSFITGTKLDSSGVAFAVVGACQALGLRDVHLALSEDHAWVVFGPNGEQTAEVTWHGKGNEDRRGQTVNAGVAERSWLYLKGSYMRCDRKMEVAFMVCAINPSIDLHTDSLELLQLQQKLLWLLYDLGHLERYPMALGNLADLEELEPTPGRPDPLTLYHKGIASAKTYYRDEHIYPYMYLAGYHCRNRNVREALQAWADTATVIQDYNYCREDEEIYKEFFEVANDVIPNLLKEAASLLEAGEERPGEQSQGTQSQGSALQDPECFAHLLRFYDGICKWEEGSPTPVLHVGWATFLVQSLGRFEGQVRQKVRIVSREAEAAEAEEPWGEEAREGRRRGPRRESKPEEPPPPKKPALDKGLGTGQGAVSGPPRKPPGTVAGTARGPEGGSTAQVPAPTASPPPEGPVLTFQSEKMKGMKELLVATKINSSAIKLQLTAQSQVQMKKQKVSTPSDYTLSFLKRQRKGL
Menin/Histone-lysine N-methyltransferase MLL (Homo sapiens, UniProt O00255+Q03164), sequence (Q03164 1-2718 limits assumed): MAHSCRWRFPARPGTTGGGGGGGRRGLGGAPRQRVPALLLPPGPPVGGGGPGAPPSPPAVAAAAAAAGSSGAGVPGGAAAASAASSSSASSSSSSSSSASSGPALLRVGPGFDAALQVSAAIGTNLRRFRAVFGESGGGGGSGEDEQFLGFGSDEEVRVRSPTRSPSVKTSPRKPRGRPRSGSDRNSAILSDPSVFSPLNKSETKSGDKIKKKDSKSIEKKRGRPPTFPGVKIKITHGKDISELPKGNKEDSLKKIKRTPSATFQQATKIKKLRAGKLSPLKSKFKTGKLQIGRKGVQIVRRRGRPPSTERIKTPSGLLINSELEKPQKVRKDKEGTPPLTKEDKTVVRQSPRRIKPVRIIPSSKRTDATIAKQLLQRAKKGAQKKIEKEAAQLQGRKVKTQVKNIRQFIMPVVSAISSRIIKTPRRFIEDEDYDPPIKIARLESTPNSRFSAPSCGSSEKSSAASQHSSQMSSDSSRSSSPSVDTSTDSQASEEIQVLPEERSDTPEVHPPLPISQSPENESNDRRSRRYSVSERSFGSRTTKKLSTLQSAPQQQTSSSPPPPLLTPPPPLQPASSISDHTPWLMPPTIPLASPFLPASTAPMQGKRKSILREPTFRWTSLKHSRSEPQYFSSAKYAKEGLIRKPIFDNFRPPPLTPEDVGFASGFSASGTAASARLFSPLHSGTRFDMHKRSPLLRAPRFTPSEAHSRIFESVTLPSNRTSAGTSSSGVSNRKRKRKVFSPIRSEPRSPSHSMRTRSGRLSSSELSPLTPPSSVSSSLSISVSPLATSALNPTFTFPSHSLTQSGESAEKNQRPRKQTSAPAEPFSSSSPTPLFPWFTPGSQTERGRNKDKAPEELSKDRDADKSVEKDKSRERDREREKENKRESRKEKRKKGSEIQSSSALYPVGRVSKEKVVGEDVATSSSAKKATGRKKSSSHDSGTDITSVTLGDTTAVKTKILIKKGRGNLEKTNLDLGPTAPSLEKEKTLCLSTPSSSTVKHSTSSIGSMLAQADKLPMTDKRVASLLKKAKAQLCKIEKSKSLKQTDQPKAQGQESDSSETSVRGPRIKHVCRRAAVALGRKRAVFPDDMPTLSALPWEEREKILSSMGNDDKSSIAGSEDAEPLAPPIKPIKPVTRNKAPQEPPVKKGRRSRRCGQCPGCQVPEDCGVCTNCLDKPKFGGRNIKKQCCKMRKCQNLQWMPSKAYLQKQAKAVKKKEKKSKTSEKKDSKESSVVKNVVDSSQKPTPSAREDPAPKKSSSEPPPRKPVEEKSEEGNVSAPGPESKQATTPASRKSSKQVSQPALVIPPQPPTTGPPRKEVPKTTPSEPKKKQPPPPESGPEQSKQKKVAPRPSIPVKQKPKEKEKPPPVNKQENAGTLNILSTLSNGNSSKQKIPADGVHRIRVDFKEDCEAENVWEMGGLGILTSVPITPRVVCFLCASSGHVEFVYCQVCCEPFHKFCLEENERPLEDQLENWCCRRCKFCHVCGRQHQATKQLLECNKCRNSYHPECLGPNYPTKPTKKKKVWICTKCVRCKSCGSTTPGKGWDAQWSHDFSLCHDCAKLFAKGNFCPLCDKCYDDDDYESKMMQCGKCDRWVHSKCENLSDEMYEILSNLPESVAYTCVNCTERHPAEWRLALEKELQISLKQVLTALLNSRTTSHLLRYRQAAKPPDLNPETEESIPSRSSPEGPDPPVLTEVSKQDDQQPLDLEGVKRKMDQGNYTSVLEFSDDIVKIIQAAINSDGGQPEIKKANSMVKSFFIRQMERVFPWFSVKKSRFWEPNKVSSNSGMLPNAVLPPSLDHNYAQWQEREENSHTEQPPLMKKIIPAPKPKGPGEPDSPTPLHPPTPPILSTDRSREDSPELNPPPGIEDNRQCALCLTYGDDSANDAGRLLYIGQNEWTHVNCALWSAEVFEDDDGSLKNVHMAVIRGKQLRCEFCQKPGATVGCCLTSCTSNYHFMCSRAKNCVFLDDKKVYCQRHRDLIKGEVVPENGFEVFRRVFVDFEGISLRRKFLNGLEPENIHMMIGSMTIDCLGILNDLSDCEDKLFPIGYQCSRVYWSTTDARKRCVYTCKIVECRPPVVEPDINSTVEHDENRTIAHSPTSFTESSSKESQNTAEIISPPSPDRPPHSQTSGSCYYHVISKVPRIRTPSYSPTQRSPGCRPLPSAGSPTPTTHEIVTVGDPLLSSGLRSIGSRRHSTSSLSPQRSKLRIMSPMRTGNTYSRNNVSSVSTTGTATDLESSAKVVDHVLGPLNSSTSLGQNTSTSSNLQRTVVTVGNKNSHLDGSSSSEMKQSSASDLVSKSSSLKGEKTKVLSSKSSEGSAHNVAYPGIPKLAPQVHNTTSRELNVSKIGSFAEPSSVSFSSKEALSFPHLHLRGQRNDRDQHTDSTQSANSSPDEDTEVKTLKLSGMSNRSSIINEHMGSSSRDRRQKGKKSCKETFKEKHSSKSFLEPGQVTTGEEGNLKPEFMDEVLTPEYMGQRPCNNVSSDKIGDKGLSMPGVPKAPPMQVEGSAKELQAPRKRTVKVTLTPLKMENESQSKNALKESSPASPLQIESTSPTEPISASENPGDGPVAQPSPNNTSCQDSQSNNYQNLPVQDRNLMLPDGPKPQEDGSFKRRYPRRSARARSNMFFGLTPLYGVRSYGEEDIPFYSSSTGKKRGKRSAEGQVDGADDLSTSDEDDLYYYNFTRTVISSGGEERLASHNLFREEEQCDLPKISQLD
Menin/Histone-lysine N-methyltransferase MLL (Homo sapiens, UniProt O00255+Q03164), sequence (Q03164 2719-3969 limits assumed): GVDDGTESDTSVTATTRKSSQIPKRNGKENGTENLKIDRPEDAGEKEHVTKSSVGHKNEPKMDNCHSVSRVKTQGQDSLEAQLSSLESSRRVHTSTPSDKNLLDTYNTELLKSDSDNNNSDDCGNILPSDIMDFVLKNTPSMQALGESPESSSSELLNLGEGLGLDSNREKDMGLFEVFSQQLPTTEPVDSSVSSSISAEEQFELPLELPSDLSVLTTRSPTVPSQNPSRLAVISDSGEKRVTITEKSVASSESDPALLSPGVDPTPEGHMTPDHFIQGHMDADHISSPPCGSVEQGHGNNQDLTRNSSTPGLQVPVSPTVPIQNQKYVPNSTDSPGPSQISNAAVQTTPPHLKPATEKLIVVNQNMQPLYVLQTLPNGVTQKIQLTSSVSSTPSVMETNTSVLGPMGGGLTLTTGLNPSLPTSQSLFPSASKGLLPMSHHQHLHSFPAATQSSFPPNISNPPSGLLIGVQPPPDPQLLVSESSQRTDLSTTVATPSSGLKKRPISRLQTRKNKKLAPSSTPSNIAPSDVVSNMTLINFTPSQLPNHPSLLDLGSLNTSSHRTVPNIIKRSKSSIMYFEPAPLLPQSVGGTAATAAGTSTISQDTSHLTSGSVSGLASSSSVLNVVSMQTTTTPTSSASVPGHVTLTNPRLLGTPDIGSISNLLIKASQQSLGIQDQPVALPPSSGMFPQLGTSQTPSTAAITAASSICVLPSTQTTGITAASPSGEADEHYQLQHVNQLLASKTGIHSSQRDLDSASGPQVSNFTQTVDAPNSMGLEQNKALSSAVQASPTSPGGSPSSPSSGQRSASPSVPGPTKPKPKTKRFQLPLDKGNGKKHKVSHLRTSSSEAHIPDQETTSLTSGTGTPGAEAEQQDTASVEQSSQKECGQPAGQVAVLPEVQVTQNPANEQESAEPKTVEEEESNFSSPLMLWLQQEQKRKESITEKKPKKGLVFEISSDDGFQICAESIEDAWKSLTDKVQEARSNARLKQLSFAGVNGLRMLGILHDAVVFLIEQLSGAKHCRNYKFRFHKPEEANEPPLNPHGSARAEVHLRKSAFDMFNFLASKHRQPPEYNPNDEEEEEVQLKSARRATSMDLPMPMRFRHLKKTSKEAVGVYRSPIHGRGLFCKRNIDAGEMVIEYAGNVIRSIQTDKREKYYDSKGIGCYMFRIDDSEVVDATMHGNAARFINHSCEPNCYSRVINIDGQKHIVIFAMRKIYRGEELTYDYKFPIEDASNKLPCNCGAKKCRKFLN
Assay: not given
Conditions: not given
As for `O=C(O)c1ccc(CN2CCC(CN[C@@H]3C[C@H]3c3ccccc3)CC2)cc1` [GSK2879552], the IC50 result is “Not Active”.

A further assay deals with Menin/Histone-lysine N-methyltransferase MLL (Homo sapiens, UniProt O00255).
Menin/Histone-lysine N-methyltransferase MLL (Homo sapiens, UniProt O00255), sequence (O00255 whole entry): as the sequence (O00255 whole entry) above
Menin/Histone-lysine N-methyltransferase MLL (Homo sapiens, UniProt O00255), sequence (Q03164 1-2718 partner limits assumed): as the sequence (Q03164 1-2718 limits assumed) above
Menin/Histone-lysine N-methyltransferase MLL (Homo sapiens, UniProt O00255), sequence (Q03164 2719-3969 partner limits assumed): as the sequence (Q03164 2719-3969 limits assumed) above
Assay: not given
Conditions: not given
The molecule `FC(F)(F)Cc1cc2c(N[C@H]3CC[C@@H](N[C@H]4C[C@@H]4c4ccccc4)CC3)ncnc2s1` showed a pIC50 of 4.61.

For the molecule `Fc1ccc([C@@H]2C[C@H]2NCC2CCN(c3ncnc4sc(CC(F)(F)F)cc34)CC2)cc1F`, the pIC50 is 4.51.

Molecule `Fc1ccc([C@@H]2C[C@H]2N[C@H]2CC[C@@H](Nc3ncnc4sc(CC(F)(F)F)cc34)CC2)cc1F` gave a pIC50 of 5.67.

On to `FC(F)(F)Cc1cc2c(N[C@H]3CC[C@H](N[C@H]4C[C@@H]4c4ccccc4)CC3)ncnc2s1`, for which the pIC50 was less than 4.00.

For `FC(F)(F)Cc1cc2c(N3CCC(CN[C@@H]4C[C@H]4c4ccccc4)CC3)ncnc2s1`, the pIC50 was 4.76.

With `FC(F)(F)Cc1cc2c(N[C@H]3CC[C@H](CN[C@H]4C[C@@H]4c4ccccc4)CC3)ncnc2s1`, the pIC50 was less than 4.00.

For `FC(F)(F)Cc1cc2c(N[C@H]3CC[C@H](CN[C@@H]4C[C@H]4c4ccccc4)CC3)ncnc2s1`, the pIC50 is less than 4.00.

In the case of `Fc1ccc([C@@H]2C[C@H]2NC[C@H]2CC[C@H](Nc3ncnc4sc(CC(F)(F)F)cc34)CC2)cc1F`, the pIC50 was less than 4.00.

A further assay concerns the target T2, Lysine-specific histone demethylase 1A (Homo sapiens, UniProt O60341). As to the kind of experiment: Inhibition of LSD1 in human MV4-11 cells assessed as increase in CD86 mRNA expression at 100 nM by SYBR Green dye-bsed RT-qPCR analysis relative to control. It counts as cell-based.
Conditions: not given
(Quantitative PCR measures a nucleic acid by following its amplification.)
`Fc1ccc([C@@H]2C[C@H]2N[C@H]2CC[C@@H](Nc3ncnc4sc(CC(F)(F)F)cc34)CC2)cc1F`: the fold change (FC) amounted to 7.59.

The subject of another assay is MV4-11. As to the kind of experiment: Antiproliferative activity against human MV4-11 cells after 240 hrs by MTS assay. The class given is functional, cell-based. As to conditions: MV4-11, 240 h.
`O=C(O)c1ccc(CN2CCC(CN[C@@H]3C[C@H]3c3ccccc3)CC2)cc1` [GSK2879552] gave a pIC50 of 5.94.

Another assay concerns the target T3, Amine oxidase [flavin-containing] B (Homo sapiens, UniProt P27338).
T3 sequence (P27338 whole entry): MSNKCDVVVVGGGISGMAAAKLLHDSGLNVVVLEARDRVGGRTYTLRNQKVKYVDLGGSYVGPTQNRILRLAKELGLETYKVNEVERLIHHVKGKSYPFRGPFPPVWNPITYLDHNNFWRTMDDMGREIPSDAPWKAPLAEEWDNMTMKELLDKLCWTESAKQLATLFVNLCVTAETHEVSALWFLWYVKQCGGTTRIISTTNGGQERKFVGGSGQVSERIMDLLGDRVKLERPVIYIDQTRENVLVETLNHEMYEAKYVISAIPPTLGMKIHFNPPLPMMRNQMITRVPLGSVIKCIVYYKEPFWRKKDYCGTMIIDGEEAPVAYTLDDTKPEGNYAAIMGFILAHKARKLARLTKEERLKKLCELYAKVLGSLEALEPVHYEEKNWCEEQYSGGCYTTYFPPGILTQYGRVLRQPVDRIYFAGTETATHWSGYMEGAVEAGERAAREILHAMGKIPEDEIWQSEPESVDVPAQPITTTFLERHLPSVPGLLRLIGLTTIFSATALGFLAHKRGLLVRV
Assay: not given
Conditions: not given
With `FC(F)(F)Cc1cc2c(N[C@H]3CC[C@@H](N[C@H]4C[C@@H]4c4ccccc4)CC3)ncnc2s1`, the pIC50 was 4.12.

For `Fc1ccc([C@@H]2C[C@H]2NCC2CCN(c3ncnc4sc(CC(F)(F)F)cc34)CC2)cc1F`, the pIC50 was 4.31.

Take `Fc1ccc([C@@H]2C[C@H]2N[C@H]2CC[C@@H](Nc3ncnc4sc(CC(F)(F)F)cc34)CC2)cc1F`: the pIC50 was 5.92.

`FC(F)(F)Cc1cc2c(N[C@H]3CC[C@H](N[C@H]4C[C@@H]4c4ccccc4)CC3)ncnc2s1` had a pIC50 of 4.54.

Molecule `FC(F)(F)Cc1cc2c(N3CCC(CN[C@@H]4C[C@H]4c4ccccc4)CC3)ncnc2s1` had a pIC50 of 5.94.

As for `FC(F)(F)Cc1cc2c(N[C@H]3CC[C@H](CN[C@H]4C[C@@H]4c4ccccc4)CC3)ncnc2s1`, the pIC50 was 4.66.

As for `FC(F)(F)Cc1cc2c(N[C@H]3CC[C@H](CN[C@@H]4C[C@H]4c4ccccc4)CC3)ncnc2s1`, the negative-log IC50 (pIC50) was 5.32.

Regarding `O=C(O)c1ccc(CN2CCC(CN[C@@H]3C[C@H]3c3ccccc3)CC2)cc1` [GSK2879552], the pIC50 was less than 4.00.

For the molecule `Fc1ccc([C@@H]2C[C@H]2NC[C@H]2CC[C@H](Nc3ncnc4sc(CC(F)(F)F)cc34)CC2)cc1F`, the negative logarithm of the IC50 (pIC50) is 4.69.

The next assay has as its target T2, Lysine-specific histone demethylase 1A.
Assay: not given
Conditions: not given
As to `FC(F)(F)Cc1cc2c(N[C@H]3CC[C@@H](N[C@H]4C[C@@H]4c4ccccc4)CC3)ncnc2s1`, the pIC50 was 6.62.

Molecule `Fc1ccc([C@@H]2C[C@H]2NCC2CCN(c3ncnc4sc(CC(F)(F)F)cc34)CC2)cc1F` showed a pIC50 of 6.60.

As to `Fc1ccc([C@@H]2C[C@H]2N[C@H]2CC[C@@H](Nc3ncnc4sc(CC(F)(F)F)cc34)CC2)cc1F`, the pIC50 was 7.18.

With `FC(F)(F)Cc1cc2c(N[C@H]3CC[C@H](N[C@H]4C[C@@H]4c4ccccc4)CC3)ncnc2s1`, the pIC50 was 6.73.

In turn, `FC(F)(F)Cc1cc2c(N3CCC(CN[C@@H]4C[C@H]4c4ccccc4)CC3)ncnc2s1` gave a pIC50 of 7.07.

For `FC(F)(F)Cc1cc2c(N[C@H]3CC[C@H](CN[C@H]4C[C@@H]4c4ccccc4)CC3)ncnc2s1`, the pIC50 is 6.73.

The molecule `FC(F)(F)Cc1cc2c(N[C@H]3CC[C@H](CN[C@@H]4C[C@H]4c4ccccc4)CC3)ncnc2s1` had a pIC50 of 6.96.

In the case of `O=C(O)c1ccc(CN2CCC(CN[C@@H]3C[C@H]3c3ccccc3)CC2)cc1` [GSK2879552], the pIC50 was 5.92.

Regarding `Fc1ccc([C@@H]2C[C@H]2NC[C@H]2CC[C@H](Nc3ncnc4sc(CC(F)(F)F)cc34)CC2)cc1F`, the pIC50 is 6.44.

Values taken from ChEMBL document CHEMBL4368922 (Bioorg Med Chem Lett, 2019).
